Marks after values point to notes of the source that are not given here.
Key:
[1] = system: human ovarian cancer SK-OV-3; experiment: Biological Example 5: in vivo xenograft model of human ovarian cancer SK-OV-3; design: species or system Balb/c-nu nude mice; conditions: SK-OV-3 xenograft, nude mice; for Final body weight change (%) / Maximum body weight change (%) / Relative volume RTV (x±S.D.) / T/C (%) / Tumor inhibition rate (%) / Tumor weight (g, x±S.D.) / Body weight (g, x±S.D.) End / Body weight (g, x±S.D.) Start: 0.8 mg/kg i.v. qw×3
[2] = system: human non-small cell lung cancer NCI-H1975; experiment: Biological Example 9: in vivo xenograft model of human non-small cell lung cancer NCI-H1975; design: species or system Balb/c-nu nude mice; conditions: nude mice
[3] = system: HepG2 (human liver cancer cell); experiment: In vitro inhibitory effect against human tumor cells (SRB); type: cell-based; conditions: HepG2, 72 h, 3 days
Procedure: (§1) Cells were cultured with 5% CO2 at 37°C and saturated humidity until they reached a logarithmic growth phase (usually adherent cells were nearly fully confluent). After removing adherent cells by trypsin/EDTA digestion, the cells were collected for subsequent experiments.
(§2) The cells were inoculated into a 96-well cell culture plate (hereinafter referred to as the 96-well plate) based on the cell count shown in Table 2, cultured overnight to achieve cell adherence, and then, after different concentrations of the test compound were added, further cultured for a total of 3 days. Finally, the total cell protein in the assay wells was assayed by SRB, or the cell viability was assessed by MTT:
(§3) 2.1 Assaying total cell protein by SRB: the modification is based on the method in the literature (V. Vichai and K. Kirtikara. Sulforhodamine B colorimetric assay for cytotoxicity screening. Nature Protocols. 2006, 1: 1112-1116). Specific method: the culture medium was pipetted out from the wells, the cells were fixed with 10% trichloroacetic acid for more than 1 h, and trichloroacetic acid was removed; the cells were washed with H2O, and stained with 0.4% SRB for 15-30 min; after excess SRB was removed, the cells were washed with 1% acetic acid; 100 µl of 10 mM tris(trihydroxymethylaminomethane) was added to dissolve the protein-bound SRB, followed by assay at a wavelength of 570 nm.
(§4) 2.3: 1-2 mg of β-glucuronidase was weighed, and dissolved in PBS to prepare 2 mg/mL stock solution. Prior to use, the stock solution was diluted with a complete medium to prepare 12.5 µg/mL enzyme working solution. For assay wells requiring the enzyme, 80 µL of the enzyme working solution was added, with the β-glucuronidase at a concentration of 1 µg/well; and for assay wells not requiring the enzyme, 80 µL of the complete medium was added.
(§5) 1-3 mg of the test compound was weighed, and dissolved in DMSO to prepare 20 mM stock solution. The stock solution was diluted in a 3-fold gradient with DMSO, then diluted 100-fold with RPMI1640 basal medium to obtain 10× working solutions, with a total of 8 concentrations. 20 µL of the 10× working solutions were add to the assay wells, with the final volume of each well of 200 µL, and with the DMSO at a concentration of 0.1%.
(§6) 2.4 Calculation of inhibitory activity of compound: the experiment includes a compound test group, a compound-free positive solvent control group (PC), and a negative solvent control group (NC) without cells and the compound. Inhibition rate = [1−(testvalue−NCmean)/(PCmean−NCmean)] × 100% [formula]
(§7) The mean and SD of the inhibition rate were obtained from replicate assay wells. A curve was plotted with the compound concentrations distributed in a logarithmic form as the abscissa and with the mean inhibition rates as the ordinate, and was fitted with a 4-parameter logistic equation. The compound concentration corresponding to 50% inhibition rate on the curve is the IC50 value. Table 2: Culture medium formulation and cell inoculation concentration for human tumor cell lines

[4] = system: 22RV1 (human prostate cancer); experiment: as above; type: cell-based; conditions: 22Rv1, 72 h, 22RV1, SRB, 3 days
Procedure: as §1, §2, §3, §4, §5, §6, §7

[5] = system: A375 (human malignant melanoma); experiment: as above; type: cell-based; conditions: A-375, 72 h, 3 days
Procedure: as §1, §2, §3, §4, §5, §6, §7

[6] = system: NCI-H1975 (human non-small cell lung cancer); experiment: In vitro inhibitory effect against human tumor cells (MTT); type: cell-based; conditions: NCI-H1975, 72 h, 3 days
Procedure: as §1, §2
(§8) 2.2 Assaying cell viability by MTT: the modification is based on the method in the literature (J. Carmichael, W. DeGraff, A. Gazdar et al., Evaluation of a tetrazolium-based semiautomated colorimetric assay: assessment of chemosensitivity testing. Cancer Research. 1987, 47: 936-942). Specific method: For well-adherent cells: the medium was pipetted out, 100 µL of a basal medium containing 0.5 mg/mL MTT (medium free of fetal bovine serum (FBS) and other additives) was added to each well, and culture was continued for additional 3 h. The MTT-containing basal medium was pipetted out, and 100 µL of DMSO was added to each well to dissolve formazan, followed by assay at a wavelength of 490 nm.
(§9) For poorly-adherent cells: MTT solution was directly added to a concentration of 0.5 mg/mL, culture was continued for additional 3 h, and an equal volume of triple solvent was added to the system to dissolve formazan, followed by assay at a wavelength of 570 nm.
as §4, §5, §6, §7

[7] = system: Fadu (human pharyngeal squamous cell carcinoma); experiment: as above; type: cell-based; conditions: 72 h, 3 days
Procedure: as §1, §2, §8, §9, §4, §5, §6, §7

[8] = system: HCT116 (human colorectal cancer); experiment: as above; type: cell-based; conditions: HCT-116, 72 h, 3 days
Procedure: as §1, §2, §8, §9, §4, §5, §6, §7

[9] = system: SK-OV-3 (human ovarian cancer); experiment: as above; type: cell-based; conditions: SK-OV-3, 72 h, SK-OV-3, MTT, 3 days
Procedure: as §1, §2, §8, §9, §4, §5, §6, §7

[10] = system: BxPC-3 (human pancreatic cancer in situ); experiment: In vitro inhibitory effect against human tumor cells (MTT or SRB); type: cell-based; conditions: BXPC-3, 72 h, BxPC-3, test method printed MTT (head: SRB), 3 days
Procedure: as §1, §2, §3, §8, §9, §4, §5, §6, §7

[11] = system: human non-small cell lung cancer NCI-H1975; experiment: Biological Example 10: in vivo xenograft model of human non-small cell lung cancer NCI-H1975; design: species or system Balb/c-nu nude mice; conditions: nude mice
[12] = system: human non-small cell lung cancer NCI-H1975; experiment: Biological Example 7: in vivo xenograft model of human non-small cell lung cancer NCI-H1975; design: species or system Balb/c-nu nude mice; conditions: nude mice
[13] = system: MDA-MB-468 (human triple-negative breast cancer); experiment: In vitro inhibitory effect against human tumor cells (SRB); type: cell-based; conditions: MDA-MB-468, 72 h, MDA-MB-468, SRB, 3 days
Procedure: as §1, §2, §3, §4, §5, §6, §7

[14] = With addition of βGU (1 µg/well)

| SMILES | Final body weight change (%) [1] | Maximum body weight change (%) [1] | Relative volume RTV (x±S.D.) [1] | T/C (%) [1] | Tumor inhibition rate (%) [1] | Tumor weight (g, x±S.D.) [1] | Body weight (g, x±S.D.) End [1] | Body weight (g, x±S.D.) Start [1] | IC50 [3, 14] | IC50 ([3]; βGU-free) | IC50 [4, 14] | IC50 ([4]; βGU-free) | IC50 [5, 14] | IC50 ([5]; βGU-free) | IC50 [6, 14] | IC50 ([6]; βGU-free) | IC50 [7, 14] | IC50 ([7]; βGU-free) | IC50 [10, 14] | IC50 ([10]; βGU-free) | also measured |
| --- | --- | --- | --- | --- | --- | --- | --- | --- | --- | --- | --- | --- | --- | --- | --- | --- | --- | --- | --- | --- | --- |
| CC[C@H](C)[C@@H]([C@@H](CC(=O)N1CCC[C@H]1[C@H](OC)[C@@H](C)C(=O)N[C@H](C)[C@@H](O)c1ccccc1)OC)N(C)C(=O)[C@@H](NC(=O)[C@H](C(C)C)[N+](C)(CC)Cc1ccc(O[C@@H]2O[C@H](C(=O)[O-])[C@@H](O)[C@H](O)[C@H]2O)cc1OCc1cn(CCOCCC(=O)Nc2ccc(-c3ccc(/N=N/c4ccc5c(S(=O)(=O)[O-])cc(S(=O)(=O)[O-])c(N)c5c4O)c(C)c3)cc2C)nn1)C(C)C.[Na+].[Na+] (stereo partly shown) [Example compound 8] | 4.6% | 4.6, d21% | 0.08±0.02 | 0.7% | 99.7% | 0.005 ± 0.003 g | 24.1 ± 1.6 g | 22.9 ± 1.6 g | 4 nM | 86 nM | 3 nM | 63 nM | 2.4 nM | 43 nM | 3.4 nM | 72 nM | 0.79 nM | 19 nM | 0.54 nM | 21 nM | Animal death ([1]; 0.8 mg/kg i.v. qw×3, group G5, stated to be independent of drug administration (biting and fighting injury)): One animal in group G5 died on day 18; Final body weight change (%) ([2]; 0.8 mg/kg i.v. qw×3): 4%; Maximum body weight change (%) ([2]; 0.8 mg/kg i.v. qw×3): 4.3, d17%; Relative volume RTV (x±S.D.) ([2]; 0.8 mg/kg i.v. qw×3): 0.19±0.27; T/C (%) ([2]; 0.8 mg/kg i.v. qw×3): 2.5%; Tumor inhibition rate (%) ([2]; 0.8 mg/kg i.v. qw×3): 98.3%; Tumor weight (g, x±S.D.) ([2]; 0.8 mg/kg i.v. qw×3): 0.022±0.038* * g; Body weight (g, x±S.D.) End 24d ([2]; 0.8 mg/kg i.v. qw×3, End 24d): 26.3 ± 1.5 g; Body weight (g, x±S.D.) Start ([2]; 0.8 mg/kg i.v. qw×3, Start): 25.3 ± 1.1 g; IC50 [8, 14]: 2.1 nM; IC50 ([8]; βGU-free): 51 nM; IC50 [9, 14]: 2.6 nM; IC50 ([9]; βGU-free): 61 nM |
| CC[C@H](C)[C@@H]([C@@H](CC(=O)N1CCC[C@H]1[C@H](OC)[C@@H](C)C(=O)N[C@H](C)[C@@H](O)c1ccccc1)OC)N(C)C(=O)[C@@H](NC(=O)[C@H](C(C)C)[N+](C)(C)Cc1ccc(O[C@@H]2O[C@H](C(=O)[O-])[C@@H](O)[C@H](O)[C@H]2O)cc1OCc1cn(CCOCCC(=O)Nc2ccc(-c3ccc(/N=N/c4ccc5c(S(=O)(=O)[O-])cc(S(=O)(=O)[O-])c(N)c5c4O)c(C)c3)cc2C)nn1)C(C)C.[Na+].[Na+] [Example compound 9] | 5.3% | 5.3, d21% | 0.05±0.03 | 0.4% | 99.9% | 0.002 ± 0.001 g | 25.8 ± 0.7 g | 24.5 ± 0.6 g | 3.8 nM | 88 nM | 3.8 nM | 86 nM | 2.7 nM | 27 nM | 4.7 nM | 69 nM | 0.35 nM | 25 nM | 0.86 nM | 28 nM | IC50 [8, 14]: 2.9 nM; IC50 ([8]; βGU-free): 69 nM; IC50 [9, 14]: 2.4 nM; IC50 ([9]; βGU-free): 65 nM; Final body weight change (%) ([11]; 0.4 mg/kg i.v. qw×2): 4.8%; Maximum body weight change (%) ([11]; 0.4 mg/kg i.v. qw×2): 4.8, d28%; Relative volume RTV (x±S.D.) ([11]; 0.4 mg/kg i.v. qw×2): 0.38±0.05; T/C (%) ([11]; 0.4 mg/kg i.v. qw×2): 7.7%; Tumor inhibition rate (%) ([11]; 0.4 mg/kg i.v. qw×2): 93.4%; Tumor weight (g, x±S.D.) ([11]; 0.4 mg/kg i.v. qw×2): 0.073 ± 0.016 g; Body weight (g, x±S.D.) End 24d ([11]; 0.4 mg/kg i.v. qw×2, End 24d): 23.5 ± 0.6 g; Body weight (g, x±S.D.) Start ([11]; 0.4 mg/kg i.v. qw×2, Start): 22.5 ± 1.4 g; Final body weight change (%) ([12]; 0.8 mg/kg i.v. qw×3): 8.8%; Maximum body weight change (%) ([12]; 0.8 mg/kg i.v. qw×3): 8.8, d21%; Relative volume RTV (x±S.D.) ([12]; 0.8 mg/kg i.v. qw×3): 0.45±0.30; T/C (%) ([12]; 0.8 mg/kg i.v. qw×3): 3.2%; Tumor inhibition rate (%) ([12]; 0.8 mg/kg i.v. qw×3): 97.7%; Tumor weight (g, x±S.D.) ([12]; 0.8 mg/kg i.v. qw×3): 0.041 ± 0.051 g; Body weight (g, x±S.D.) End ([12]; 0.8 mg/kg i.v. qw×3, End): 28.3 ± 2.9 g; Body weight (g, x±S.D.) Start ([12]; 0.8 mg/kg i.v. qw×3, Start): 26.1 ± 2.8 g |
| CC[C@H](C)[C@@H]([C@@H](CC(=O)N1CCC[C@H]1[C@H](OC)[C@@H](C)C(=O)N[C@H](C)[C@@H](O)c1ccccc1)OC)N(C)C(=O)[C@@H](NC(=O)[C@H](C(C)C)N(C)Cc1ccc(O[C@@H]2O[C@H](C(=O)O)[C@@H](O)[C@H](O)[C@H]2O)cc1OCc1cn(CCCCCC(=O)Nc2ccc(-c3ccc(/N=N/c4ccc5c(S(=O)(=O)O)cc(S(=O)(=O)O)c(N)c5c4O)c(C)c3)cc2C)nn1)C(C)C [Example compound 3] |  |  |  |  |  |  |  |  |  |  |  |  |  |  |  |  | 7.8 nM | 159 nM | 9.7 nM | 106 nM | IC50 [13, 14]: 0.77 nM; IC50 ([13]; βGU-free): 50 nM |

Source: EP4818187A1, “COMPOUND AND USE THEREOF” (Ganzhou Hemay Pharmaceutical, Co., Ltd, priority 2023, dated 2025)
